# Source: patent publication US9200333B2, “Methods for identifying modulators of murine double minute 2” (Indiana University Research and Technology Corporation, priority 2012, dated 2015)
# How the values were obtained:
# Type in all cases: cell-based, human
# [1] = test system: neddylating activity of Mdm2 (neddylated p53) in H1299 cells; test: Western blot of neddylated p53 in H1299 cells transfected with p53, Mdm2 and CA-Src; conditions: vs DMSO, FIG. 29
# Procedure: (§1) Mammalian cells (H1299 and MCF7) were cultured at 37° C. in a humidified incubator with 5% CO2 in DMEM high glucose plus 10% FBS. Transfection in H1299 was performed using a calcium phosphate method and in MCF7 using Lipofectamine Plus reagent (Invitrogen). Equal amounts of DNA were transfected into cells and incubated for the indicated times prior to analysis. PPI (Calbiochem) and MLN4924 (LifeSensors) were used at concentrations provided. Site-directed mutagenesis was performed by PCR, and constructs were sequenced in their entirety.
# H1299 cells were transfected with His-Ubiquitin or His-Nedd8 and other plasmids as indicated using calcium phosphate method. 48 hours after transfection, cells were lysed in 1 ml of 6M guanidinium-HCl, 0.1M Na2HPO4/NaH2PO4, 0.01M Tris-HCl pH 8.0 plus 5 mM Imidazole and 10 mM β-mercaptoethanol. After sonication, the lysates were mixed with 30 μl of Ni^2+-NTA-agarose beads (Qiagen) prewashed with lysis buffer and incubated for 2 hours at room temperature. The beads were successively washed and eluted.
# Based on transient transfection data that supported its role as a neddylating enzyme, the affect of pharmacological inhibition of neddylating activity of Mdm2 using MLN4924 was determined.
# [2] = test system: p53 activity (PG13-Luc) in H1299 cells; test: PG13-Luc luciferase assay in H1299 cells transfected with p53, Mdm2 and CA-Src; conditions: H1299 cells transfected with PG-13-luc, FIG. 32
# Procedure: (§2) For the luciferase assays, H1299 and MCF7 cells were transfected with PG13-Luc, Mdm2-P2-Luc, Maspin-Luc or Mutant Maspin-Luc (MT1) along with Myc-LacZ for determination of […] activity, using the calcium phosphate method. Reporter activity was normalized to […] activity. Data generated were done in triplicate and standard deviation was calculated from the mean.
# H1299 cells were transfected with the PG-13-luc, p53, Mdm2 and CA-Src. Reduction in p53 activity by Mdm2 was further increased in the presence of c-Src.
# [3] = test system: endogenous Mdm2 tyrosine phosphorylation in MCF7 cells; test: Immunoprecipitation of Mdm2 from MCF7 extracts and immunoblot for phosphorylated tyrosine; conditions: MCF7 cells pretreated 16 hrs; FIG. 8
# Procedure: as §1
# Whole cell lysates (Lysates) were prepared in Nonidet P-40 lysis buffer (25 mM Tris, pH 8.0, 150 mM NaCl, 0.5 mM EDTA, 0.5 mM EGTA, 1% Nonidet P-40, 1 mM sodium orthovanadate, 1 mM DTT) and supplemented with protease inhibitor mixture set III (Calbiochem) at 1:100 and incubated on ice for 30 min. Debris was collected by centrifugation, and equal amounts of supernatant protein were determined by BioRad assay. Protein was fractionated by SDS-PAGE and transferred to PVDF membrane (Amersham Biosciences). […]
# First, H1299 cells were transfected with HA-tagged Mdm2 (HA-Mdm2) with either constitutively active c-Src (CA-Src) or a kinase dead Src (KD-Src). […] Along with overexpression, whether c-Src could phosphorylate endogenous Mdm2 was determined. […]
# [4] = test system: Mdm2 protein levels in MCF7 cells; test: Western blot of endogenous Mdm2 protein levels in MCF7 cells
# Procedure: as §1
# (§3) Whole cell lysates (Lysates) were prepared in Nonidet P-40 lysis buffer (25 mM Tris, pH 8.0, 150 mM NaCl, 0.5 mM EDTA, 0.5 mM EGTA, 1% Nonidet P-40, 1 mM sodium orthovanadate, 1 mM DTT) and supplemented with protease inhibitor mixture set III (Calbiochem) at 1:100 and incubated on ice for 30 min. Debris was collected by centrifugation, and equal amounts of supernatant protein were determined by BioRad assay. Protein was fractionated by SDS-PAGE and transferred to PVDF membrane (Amersham Biosciences). Antibodies used for Western blotting were: Mdm2 (SMP14, 2Al0, and 4Bl1), c-Src (B-12; Santa Cruz), p53 (DO-1), tubulin (TU-02), GAPDH (8C2), and β-actin (C4; Santa Cruz Biotechnology); phosphotyrosine (4010; Upstate); phospho-c-Src Tyr^416 (Cell Signaling); Myc (9E10) and HA (12CA5) Immunoprecipitation from lysates was performed using 500 ng of either SMP14 for Mdm2, HA (12CA5), p53 (D01) or c-Src (B-12) antibody overnight at 4° C. in 700 μl of PBS. Protein A/G Plus Agarose (Santa Cruz Biotechnology) was added to the mixture and incubated an additional 2 hrs at 4° C., precipitates were washed three times in PBS, and samples were resuspended in SDS loading buffer and boiled for 5 min.
# To examine how c-Src regulates endogenous Mdm2 protein levels, c-Src was activated through epidermal growth factor (EGF) stimulation of MCF7 cells. MCF7 cells were serum-starved for 48 hrs and then treated with 200 ng/mL of EGF for a time course of 2 hrs. […]
# mdm2 P2 promoter = test: mdm2-P2-Luc luciferase reporter assay in MCF7 cells; conditions: vs DMSO, FIG. 16
# Procedure: as §2
# To determine whether c-Src altered mdm2 gene expression, a luciferase reporter assay was conducted in which the mdm2 P2 promoter was attached to luciferase.
# p53 levels in MCF7 cells = test: Western blot of endogenous p53 levels in MCF7 cells
# Procedure: as §3
# To examine endogenous p53 levels, MCF 7 cells were transfected with increasing amounts of CA-Src. […]
# [5] = test system: endogenous neddylated p53 in MCF7 cells; test: Immunoprecipitation of p53 from MCF7 cells and anti-Nedd8 immunoblot; conditions: vs DMSO, FIG. 30
# Procedure: as §3
# To determine the role of c-Src on endogenous neddylation of p53, the c-Src inhibitor PP1 was used to treat MCF7 cells. MCF7 cells were treated with PP1, and p53 was immunoprecipitated from cell extracts. […]
# [6] = test system: p53 activity on the maspin promoter in MCF7 cells; test: Maspin-Luc luciferase assay in MCF7 cells; conditions: 16 hrs, FIG. 35
# Procedure: as §2
# To ensure that the decrease seen on the maspin promoter was due to c-Src phosphorylation of Mdm2, another luciferase assay was done using the Y281-302F Mdm2 and CA-Src. […] For further insight on how endogenous neddylation of p53 would affect maspin level, MCF7 cells were transfected with the maspin-Luc construct or a mutant maspin-Luc (MT1) that is unresponsive to p53, to ensure luciferase activity was dependent on p53. c-Src was then inhibited for 16 hrs using PP1 and a luciferase assay was performed. […] These findings provide insight into the regulation of c-Src-induced neddylation of p53. This neddylation event is responsible for the further reduction in p53 activity on both the PG13-Luc and on its ability to activate the tumor suppressor maspin (FIG. 37).
# [7] = test system: maspin protein in MCF7 cells; test: Western blot of Maspin in MCF7 cells; conditions: vs DMSO, FIG. 36
# Procedure: as §3
# To ensure that the decrease seen on the maspin promoter was due to c-Src phosphorylation of Mdm2, another luciferase assay was done using the Y281-302F Mdm2 and CA-Src. […]
compound,measurement,setting,value
NS(=O)(=O)OC[C@@H]1C[C@@H](n2ccc3c(N[C@H]4CCc5ccccc54)ncnc32)C[C@@H]1O [MLN4924],neddylated p53,[1],loss of neddylated p53
same,p53 activity (PG13-Luc),[2],restored p53 activity to levels observed with Mdm2 alone
Cc1ccc(-c2nn(C(C)(C)C)c3ncnc(N)c23)cc1 [PP1],endogenous Mdm2 tyrosine phosphorylation,[3],loss of endogenous Mdm2 tyrosine phosphorylation
same,Mdm2 levels,"[4]; MCF7 cells, increasing concentrations (1, 5, 10, 15, 20 μM), FIG. 14",dose-dependent decrease in Mdm2 levels
same,Mdm2 protein level after EGF,"[4]; serum starved MCF7 cells pre-treated 1 hr before addition of EGF, FIG. 13",no apparent increase in Mdm2
same,mdm2 promoter luciferase activity,mdm2 P2 promoter,No difference
same,p53 levels,"p53 levels in MCF7 cells; MCF7 cells, increasing concentrations (1, 5, 10, 15, 20 μM), FIG. 24",dose dependent decrease in p53 levels
same,endogenous neddylated p53,[5],decrease in endogenous neddylated p53
same,p53 activity on maspin-Luc construct,[6],increase of p53 activity on the maspin-Luc construct
same,maspin protein level,[7],maspin protein was increased
EGF: epidermal growth factor used to activate c-Src in MCF7 cells,Mdm2 protein levels on EGF stimulation,"[4]; MCF7 cells serum-starved 48 hrs, 200 ng/mL, time course of 2 hrs, FIG. 12",increase of Mdm2 protein levels
same,p53 levels on EGF stimulation,"p53 levels in MCF7 cells; MCF7 cells serum starved 48 hours, 1-hour time course, FIG. 23",increase in p53
